ChEMBL document CHEMBL5335843, “Application of tobramycin benzyl ether as an antibiotic adjuvant capable of sensitizing multidrug-resistant Gram-negative bacteria to rifampicin” (2024)
In brackets after ≈: the same amount, converted by molar mass. One block for each molecule: values may come before it. Positions of bridges follow the written chain, without caps; N, C: chain ends. Non-standard residues stand in square brackets, D forms with d. Residues, ends and D or L forms follow the SMILES beside them. *: point of attachment. X1 = CC[C@H](C)CCCCC(=O)*; Dab = NCC[C@H](N)C(=O)O

Tests used:
Type in all cases: functional
[1] = tested on: Acinetobacter baumannii; test: Antibacterial activity against Acinetobacter baumannii ATCC 17978 assessed as inhibition of bacterial growth incubated for 18 hrs by two fold broth microdilution assay
[2] = tested on: Pseudomonas aeruginosa; test: Antibacterial activity against Pseudomonas aeruginosa PAO1 assessed as inhibition of bacterial growth incubated for 18 hrs by two fold broth microdilution assay
[3] = tested on: Acinetobacter baumannii; test: Antibiotic adjuvant activity against Acinetobacter baumannii ATCC 17978 assessed as rifampicin MIC incubated for 18 hrs in presence of Rifampicin by two fold broth microdilution checkerboard assay
[4] = tested on: Acinetobacter baumannii; test: Antibiotic adjuvant activity against Acinetobacter baumannii ATCC 17978 assessed as fold potentiation incubated for 18 hrs in presence of Rifampicin by two fold broth microdilution checkerboard assay
[5] = tested on: Escherichia coli; test: Antibacterial activity against Escherichia coli ATCC 25922 assessed as inhibition of bacterial growth incubated for 18 hrs by two fold broth microdilution assay
[6] = tested on: Pseudomonas aeruginosa; test: Antibiotic adjuvant activity against Pseudomonas aeruginosa PAO1 assessed as fold potentiation incubated for 18 hrs in presence of Rifampicin by two fold broth microdilution checkerboard assay
[7] = tested on: Escherichia coli; test: Antibacterial activity against multi-drug resistant Escherichia coli clinical isolate EC94474 assessed as inhibition of bacterial growth incubated for 18 hrs by two fold broth microdilution assay
[8] = tested on: Pseudomonas aeruginosa; test: Antibacterial activity against multi-drug resistant Pseudomonas aeruginosa clinical isolate PA262 assessed as inhibition of bacterial growth incubated for 18 hrs by two fold broth microdilution assay
[9] = tested on: Pseudomonas aeruginosa; test: Antibacterial activity against multi-drug resistant Pseudomonas aeruginosa clinical isolate PA259 assessed as inhibition of bacterial growth incubated for 18 hrs by two fold broth microdilution assay
[10] = tested on: Pseudomonas aeruginosa; test: Antibacterial activity against multi-drug resistant Pseudomonas aeruginosa clinical isolate PA101243 assessed as inhibition of bacterial growth incubated for 18 hrs by two fold broth microdilution assay
[11] = tested on: Escherichia coli; test: Antibacterial activity against multi-drug resistant Escherichia coli clinical isolate EC107115 assessed as inhibition of bacterial growth incubated for 18 hrs by two fold broth microdilution assay
[12] = tested on: Pseudomonas aeruginosa; test: Antibacterial activity against multi-drug resistant Pseudomonas aeruginosa clinical isolate PA114228 assessed as inhibition of bacterial growth incubated for 18 hrs by two fold broth microdilution assay
[13] = tested on: Pseudomonas aeruginosa; test: Antibacterial activity against multi-drug resistant Pseudomonas aeruginosa clinical isolate PA264 assessed as inhibition of bacterial growth incubated for 18 hrs by two fold broth microdilution assay
[14] = tested on: Escherichia coli; test: Antibiotic adjuvant activity against Escherichia coli ATCC 25922 assessed as fold potentiation incubated for 18 hrs in presence of Rifampicin by two fold broth microdilution checkerboard assay
[15] = tested on: Escherichia coli; test: Antibiotic adjuvant activity against Escherichia coli ATCC 25922 assessed as rifampicin MIC incubated for 18 hrs in presence of Rifampicin by two fold broth microdilution checkerboard assay
[16] = tested on: Enterococcus faecium; test: Antibacterial activity against Enterococcus faecium 128149 assessed as inhibition of bacterial growth incubated for 18 hrs by two fold broth microdilution assay
[17] = tested on: Staphylococcus aureus; test: Antibacterial activity against methicilin-resistant Staphylococcus aureus assessed as inhibition of bacterial growth incubated for 18 hrs by two fold broth microdilution assay
[18] = tested on: Enterococcus faecium; test: Antibacterial activity against Enterococcus faecium 114278 assessed as inhibition of bacterial growth incubated for 18 hrs by two fold broth microdilution assay

MIC [1]: 16 µg/mL
MIC [2]: 16 µg/mL
MIC [3]: 0.004 µg/mL
MIC [5]: 4 µg/mL
Molecule: CC(C)CCOC[C@H]1O[C@H](O[C@@H]2[C@@H](OCCC(C)C)[C@H](O[C@H]3O[C@H](CN)[C@@H](OCCC(C)C)C[C@H]3N)[C@@H](N)C[C@H]2N)[C@H](OCCC(C)C)[C@@H](N)[C@@H]1OCCC(C)C.Cl
fold change (FC) [4]: 2048
fold change (FC) [6]: 16

MIC [1]: > 128 µg/mL
MIC [2]: > 128 µg/mL
MIC [5]: > 128 µg/mL
Molecule: Cl.NC[C@H]1O[C@H](O[C@H]2[C@H](OCc3ccc(Cl)cc3)[C@@H](O[C@H]3O[C@H](COCc4ccc(Cl)cc4)[C@@H](OCc4ccc(Cl)cc4)[C@H](N)[C@H]3OCc3ccc(Cl)cc3)[C@H](N)C[C@@H]2N)[C@H](N)C[C@@H]1OCc1ccc(Cl)cc1

Molecule: CN(C)c1ccc(O)c2c1C[C@H]1C[C@H]3[C@H](N(C)C)C(O)=C(C(N)=O)C(=O)[C@@]3(O)C(O)=C1C2=O [MINOCYCLINE]
MIC [7]: 64 µg/mL (≈ 140 µM)
MIC [8]: 256 µg/mL (≈ 560 µM)
MIC [9]: 128 µg/mL (≈ 280 µM)
MIC [10]: 64 µg/mL (≈ 140 µM)
MIC [11]: 32 µg/mL (≈ 69.9 µM)
MIC [12]: 128 µg/mL (≈ 280 µM)
MIC [13]: 32 µg/mL (≈ 69.9 µM)

MIC [1]: > 128 µg/mL
MIC [2]: > 128 µg/mL
MIC [3]: 1 µg/mL
MIC [15]: 0.0312 µg/mL
MIC [5]: > 128 µg/mL
Molecule: Cl.NC[C@H]1O[C@H](O[C@H]2[C@H](OCc3ccccc3)[C@@H](OCc3ccccc3)[C@H](N)C[C@@H]2N)[C@H](N)C[C@@H]1OCc1ccccc1
fold change (FC) [14]: 512
fold change (FC) [4]: 4
fold change (FC) [6]: 4

Molecule: COLISTIN
MIC [1]: 0.5 µg/mL
MIC [2]: 1 µg/mL
MIC [5]: 0.5 µg/mL

Molecule: C[C@H]1c2cccc(O)c2C(=O)C2=C(O)[C@]3(O)C(=O)C(C(N)=O)=C(O)[C@@H](N(C)C)[C@@H]3[C@@H](O)[C@@H]21.O [DOXYCYCLINE]
MIC [7]: 64 µg/mL
MIC [8]: 512 µg/mL
MIC [9]: 256 µg/mL
MIC [10]: > 128 µg/mL
MIC [11]: 128 µg/mL
MIC [12]: > 128 µg/mL
MIC [13]: 64 µg/mL

Molecule: CC[C@H](C)CCCCC(=O)N[C@@H](CCN)C(=O)N[C@H](C(=O)N[C@@H](CCN)C(=O)N[C@H]1CCNC(=O)[C@H]([C@@H](C)O)NC(=O)[C@H](CCN)NC(=O)[C@H](CCN)NC(=O)[C@H](CC(C)C)NC(=O)[C@@H](Cc2ccccc2)NC(=O)[C@H](CCN)NC1=O)[C@@H](C)O (X1-[Dab]T[Dab][Dab][Dab][dF]L[Dab][Dab]T; lactam 4-C)
MIC [16]: > 128 µg/mL
MIC [17]: > 128 µg/mL
MIC [18]: > 128 µg/mL

Molecule: NC[C@H]1O[C@H](O[C@H]2[C@H](O)[C@@H](O[C@H]3O[C@H](CO)[C@@H](O)[C@H](N)[C@H]3O)[C@H](N)C[C@@H]2N)[C@H](N)C[C@@H]1O [TOBRAMYCIN]
MIC [1]: 0.5 µg/mL (≈ 1.07 µM)
MIC [2]: 1 µg/mL (≈ 2.14 µM)
MIC [5]: 2 µg/mL (≈ 4.28 µM)
